From patent US10233205B2, “Magnetic resonance imaging contrast agent capable of detecting hydrogen peroxide and reducing reactive oxygen species” (Auburn University, priority 2015, dated 2019) come the findings set out here.

A short description of data set [1]: T1-weighted relaxivity (r1) on 3 T clinical MRI scanner. As to conditions: for r1 after addition of H2O2 / r1, second series of experiments, after H2O2 (oxidized form) / r1, second series of experiments, before H2O2 (reduced form) / r1 (T1-weighted relaxivity): 50 mM HEPES pH 7.00, 3 T; for r1 after addition of H2O2 / r1 (T1-weighted relaxivity): 25° C.; for r1, second series of experiments, after H2O2 (oxidized form) / r1, second series of experiments, before H2O2 (reduced form): 298 K; for r1 (T1-weighted relaxivity): no oxidant. It counts as physicochemical.
Text: All MRI data were collected at the Auburn University MRI Research Center (Auburn, Ala.) on a Siemens Verio open-bore 3-T MRI clinical scanner. A 15-channel knee coil was used to simultaneously image 12-26 samples. An inversion recovery (IR) sequence was used that featured a non-selective adiabatic inversion pulse followed by a slice-selective gradient recalled echo (GRE) readout after a delay period corresponding to the inversion time (TI).^1-2 The GRE was a saturation readout, such that only one line of k-space was acquired per repetition time (TR). This method was selected to maximize both the signal strength and the accuracy of the T1 estimates. Specific imaging parameters were as follows: TR was set to 4 s, TI was varied from 4.8 to 2500 ms over 37 steps, the echo time (TE) was set to 3.6 ms, the flip angle equaled 90°, averages=1, slice thickness=5 mm, field of view=140×140 mm, matrix=128×128, resulting in a pixel size of 1.1×1.1×5.0 mm. All samples were run in 50 mM solutions of HEPES in water, buffered to pH 7.0 and kept at […]. The manganese content was systematically varied from 0.10 to 1.00 mM. The inverses of the T1 values were plotted versus the concentration of Mn(II) to obtain r1 values. All reported r1 values are averages from the results of two separate series of experiments. Each series of experiments used a different batch of 1.
Image analysis was performed using custom Matlab programs (Mathworks, Natick, Mass.). The initial TI=4.8 ms image served as a baseline to determine circular region of interest (ROI) boundaries for each sample; from these, the mean pixel magnitudes for each ROI were calculated. For each of the 36 subsequent TI images, the same ROI boundaries were applied and the mean pixel magnitude calculations were repeated. This gave consistent ROI spatial definitions and a corresponding time course of magnitudes for each of the samples over all the TI time points. Each sample's complex phase was used to correct the magnitude polarity to produce a complete exponential T1 inversion recovery curve. The Nelder-Mead simplex algorithm^3 was applied to each sample's exponential curve to estimate its corresponding T1 value.
(§1) For the relaxivity measurements, all samples were run in 298 K aqueous solutions containing 50 mM HEPES buffered to pH 7.00, using a 3 T field provided by a clinical MRI scanner. The data were fit to the indicated linear equations; the y-intercepts were within error of 1/T1 measurements associated with two control samples that contained no Mn(II): (A) 10 mM H2O2 in 50 mM HEPES buffer and (B) pure 50 mM HEPES buffer (both 0.46 s^−1).
as §1, with “All” for “For the relaxivity measurements, all”, “s^−1). The oxidation of 1 by 2,3-dichloro-5,6-dicyano-1,4-benzoquinone (DDQ) occurred in CH2Cl2. After the reaction occurred, the 2,3-dichloro-5,6-dicyanoquinol product was removed via filtration, the CH2Cl2 was removed, and the sample was dissolve in HEPES buffer for MRI analysis. The other oxidation reactions occurred entirely in HEPES buffer.” for “s^−1).”
The capability of 3 to serve as a MRI contrast agent was assessed with a 3 T clinical MRI scanner. All samples were run in 298 K aqueous solutions containing 50 mM HEPES buffered to pH 7.00, using a 3 T field provided by a clinical MRI scanner. All samples were prepared under air. The oxidized samples were prepared by directly adding H2O2 to solutions of 3 in aqueous solutions buffered to pH 7.0. The oxidation reactions were allowed to proceed for 30 min at 298 K before the T1 measurements were taken. […]

The next data set in a line: Cyclic voltammetry. The class given is physicochemical. The settings on record: for ΔE, separation between anodic and cathodic peaks: ligand redox feature. The protocol:
All ^1H and ^13C NMR spectra were recorded on a 400 MHz AV Bruker NMR spectrometer; all reported resonances were referenced to internal standards. Electron paramagnetic resonance (EPR) spectra were collected using a Bruker EMX-6/1 X-band EPR spectrometer operated in the perpendicular mode. The acquired data were analyzed with the program EasySpin. Each sample was run as a frozen solution in a quartz tube. High-resolution mass spectrometry (HR-MS) data were obtained at the Mass Spectrometer Center at Auburn University on a Bruker microflex LT MALDI-TOF mass spectrometer via direct probe analysis operated in the positive ion mode. IR data were collected using a Shimadzu IR Prestige-21 FT-IR spectrophotometer. A Johnson Matthey magnetic susceptibility balance (model MK I#7967) was used to measure the magnetic properties of the Mn(II) complex with H2qtp1; the reported eff value was the average of those measured for two independently prepared solid samples. Atlantic Microlabs (Norcross, Ga.) performed the elemental analyses (C, H, N). All samples submitted for elemental analysis were crystallized and dried under vacuum prior to their shipment. All cyclic voltammetry was performed under N2 at 294 K using an Epsilon electrochemistry workstation (Bioanalytical System, Inc.), a gold working electrode, a platinum wire auxiliary electrode, and a Ag/AgCl reference electrode.
Complex 3 was studied by cyclic voltammetry (CV) in water containing 50 mM phosphate to buffer the solution to pH 7.2. A redox feature with E1/2 of 60 mV vs. Ag/AgCl (295 mV vs. NHE) is observed (FIG. 22).
Similar redox processes were found for both 1 and a Zn(II)-H2qtp1 complex, leading us to assign the 60 mV redox event to the oxidation of the ligand, rather than the manganese. The separation between the anodic and cathodic peaks (ΔE) for this feature is 230 mV; this is much less reversible than its analog in the CV of 1 (75 mV). A second and entirely irreversible redox event at 725 mV (960 mV vs NHE) is tentatively assigned to the oxidation of Mn(II) to Mn(III). For this analysis, the scan rate was 100 mV/s. For the quasi-reversible feature: E1/2=57 mV vs. Ag/AgCl, ΔE=232 mV. An irreversible feature with Epc=725 mV is also observed.

Values joined by “and” are separate entries in the source; they are usually repeats but may differ in a detail not shown here. Identical values can stand only once.

For `CC#N.O=S(=O)([O-])C(F)(F)F.O=S(=O)([O-])C(F)(F)F.[Mn+2].[O-]c1ccc(O)cc1CN(CCN(Cc1ccccn1)Cc1ccccn1)Cc1ccccn1` [Complex 1, Acetonitrilo(N-(2,5-dihydroxy-benzyl)-N,N′,N′-tris(2-pyridinylmethyl)-1,2-ethanediamine)manganese(II) triflate], in data set [1] (10 mM H2O2), the “r1 after addition of H2O2” value was determined as 5.30 mM⁻¹ s⁻¹ and the “r1, second series of experiments, after H2O2 (oxidized form)” value was found to be 5.30 mM⁻¹ s⁻¹. In data set [1], the “r1, second series of experiments, before H2O2 (reduced form)” value is 4.73 mM⁻¹ s⁻¹ and the “r1 (T1-weighted relaxivity)” value turned out to be 4.73 mM⁻¹ s⁻¹. Besides, the “ΔE, separation between anodic and cathodic peaks” value in the data set “Cyclic voltammetry” is listed as 75 mV. In addition, in the data set “Cyclic voltammetry” (phosphate buffer pH 7.2, ligand feature), the “E1/2 vs. NHE” value is reported as “about 300 mV”.

Regarding “cis-Dibromo(N,N′-bis(2,5-dihydroxybenzyl)-N,N′-bis(2-pyridinylmethyl)-1,2-ethanediamine)manganese(II) [Complex 3]”, in data set [1], the “increase of relaxivity upon exposure to H2O2” value is on record as 31%; the “r1, second series of experiments, before H2O2 (reduced form)” value was determined as 5.64 mM⁻¹ s⁻¹; the “r1 (T1-weighted relaxivity)” value is reported as 5.46 (+0.19) mM^−1 s^−1. Further, in data set [1] (10 mM H2O2), the “r1 response to H2O2” value amounted to 1.71 mM⁻¹ s⁻¹; the “r1 after addition of H2O2” value is 7.17 (+0.15) mM^−1 s^−1; the “r1, second series of experiments, after H2O2 (oxidized form)” value amounted to 7.32 mM⁻¹ s⁻¹. Moreover, the “ΔE, separation between anodic and cathodic peaks” value in the data set “Cyclic voltammetry” is 230 mV and 232 mV. Further, the “E1/2 vs. Ag/AgCl” value in the data set “Cyclic voltammetry” (phosphate buffer pH 7.2, quasi-reversible ligand feature) is 60 mV and 57 mV. Further, in “Cyclic voltammetry” (tentatively Mn(II) to Mn(III)), the “irreversible redox event (Epc) vs. Ag/AgCl” value turned out to be 725 mV and the “irreversible redox event vs NHE” value was found to be 960 mV.

As for `CC#N.Cc1ccc(O)c(CN(CCN(Cc2ccccn2)Cc2ccccn2)Cc2ccccn2)c1.[Mn+2].[O-][Cl+3]([O-])([O-])[O-].[O-][Cl+3]([O-])([O-])[O-]` [Complex 2, reference compound], the “r1 (T1-weighted relaxivity)” value in data set [1] turned out to be 4.39 mM⁻¹ s⁻¹.
